13 compounds from PubChem BioAssay (NCI) can be followed below.

Among the test systems are HL-60(TB) leukemia; K-562 leukemia; MOLT-4 leukemia; NCI-H460 lung; SK-MEL-2 melanoma; SK-MEL-28 melanoma; SN12C renal; U251 CNS; UACC-62 melanoma; UO-31 renal.
Assay in all cases: DTP human tumour cell line panel, 48 h

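Step 1: Grow cells in 96-well plates. Step 2: Expose to compound for 48 hours at 5 concentrations. Step 3: Interpolate endpoints linearly; if unreached, use highest concentration. Here, GI50 denotes the concentration required for 50% inhibition of growth. Definition used: TGI = concentration required for complete inhibition of growth.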 Some results are limits rather than exact numbers.

A word on the TGI: it is the concentration at which net growth stops. The low end stands for greater sensitivity of the cells, the high end for lower sensitivity of the cells. `c1ccc2c(c1)SCCc1cn[nH]c1-2`: the TGI in the experiment on HL-60(TB) leukemia, with K-562 leukemia, with MOLT-4 leukemia, in the experiment on NCI-H460 lung, in the experiment with SK-MEL-2 melanoma and in the experiment with SK-MEL-28 melanoma was over 100 µM throughout. Also, the concentration for total growth inhibition (TGI) in the experiment with SN12C renal, in the experiment on U251 CNS, with UACC-62 melanoma and in the experiment on UO-31 renal was over 100 µM each time.
For `O=S(O)CCCSSSCCCS(=O)O`, the total growth inhibition concentration (TGI) in the experiment on HL-60(TB) leukemia, in the experiment with K-562 leukemia, with MOLT-4 leukemia, with NCI-H460 lung, with SK-MEL-2 melanoma and with SK-MEL-28 melanoma was over 100 µM in each case. In addition, the TGI in the experiment with SN12C renal, in the experiment with U251 CNS, in the experiment with UACC-62 melanoma and in the experiment on UO-31 renal was over 100 µM each time.
Regarding `CSCC(CO)NC(=O)/C=C/c1c(C)[nH]c(=O)[nH]c1=O` (configuration not stated), the concentration for total growth inhibition (TGI) with HL-60(TB) leukemia, in the experiment on K-562 leukemia, in the experiment on MOLT-4 leukemia, in the experiment with NCI-H460 lung, in the experiment on SK-MEL-2 melanoma and in the experiment with SK-MEL-28 melanoma was over 875 µM throughout. In addition, the concentration for total growth inhibition (TGI) in the experiment on SN12C renal, with U251 CNS, in the experiment on UACC-62 melanoma and in the experiment with UO-31 renal was over 875 µM each time.
With `Nc1ccc(Cn2ccc3c4c(N)nc(N)nc4ccc32)cc1`, the concentration for total growth inhibition (TGI) is 1.37 µM in the experiment on HL-60(TB) leukemia; 2.44 µM in the experiment on K-562 leukemia; over 51.7 µM in the experiment on MOLT-4 leukemia; 5.58 µM in the experiment with NCI-H460 lung; 5.15 µM in the experiment on SK-MEL-2 melanoma; 5.32 µM in the experiment with SK-MEL-28 melanoma. The total growth inhibition concentration (TGI) in the experiment with SN12C renal came out at 8.67 µM; in the experiment with U251 CNS, 5.02 µM; in the experiment with UACC-62 melanoma, 1.5 µM; with UO-31 renal it was 19 µM.
Take `c1ccc2c(c1)SP1Sc3ccccc3P21` (configuration not stated): the total growth inhibition concentration (TGI) in the experiment on HL-60(TB) leukemia, in the experiment with K-562 leukemia, in the experiment on MOLT-4 leukemia, with NCI-H460 lung, in the experiment with SK-MEL-2 melanoma and in the experiment on SK-MEL-28 melanoma was over 100 µM throughout. Moreover, the TGI in the experiment on SN12C renal, with U251 CNS, with UACC-62 melanoma and in the experiment on UO-31 renal was over 100 µM throughout.
For `S=c1[nH]n2c(COc3ccc(Cl)cc3)nnc2s1`, the TGI with HL-60(TB) leukemia, with K-562 leukemia, with MOLT-4 leukemia, in the experiment with NCI-H460 lung, in the experiment on SK-MEL-2 melanoma and in the experiment on SK-MEL-28 melanoma was over 100 µM throughout. The TGI in the experiment with SN12C renal, in the experiment on U251 CNS, in the experiment on UACC-62 melanoma and with UO-31 renal was over 100 µM in each case.
`CC1(C)N=C(c2ccccc2)SC12S[C@@H]1CCCC[C@H]1S2`: the concentration for total growth inhibition (TGI) in the experiment on HL-60(TB) leukemia, in the experiment with K-562 leukemia, in the experiment with MOLT-4 leukemia, with NCI-H460 lung, with SK-MEL-2 melanoma and in the experiment on SK-MEL-28 melanoma was over 100 µM in each case. The total growth inhibition concentration (TGI) with SN12C renal, in the experiment with U251 CNS, with UACC-62 melanoma and with UO-31 renal was over 100 µM in each case.
Regarding `CN(C)c1cccc(OC(=O)NCCCl)c1`, the TGI in the experiment on HL-60(TB) leukemia, in the experiment on K-562 leukemia, in the experiment with MOLT-4 leukemia, with NCI-H460 lung, in the experiment with SK-MEL-2 melanoma and in the experiment with SK-MEL-28 melanoma was over 100 µM each time. For the same compound, the TGI with SN12C renal, with U251 CNS, with UACC-62 melanoma and in the experiment on UO-31 renal was over 100 µM each time.
A word on the GI50: it is the concentration giving 50% growth inhibition. `COCCNCc1ccc(-c2cc3nccc(Oc4ccc(NC(=O)C5(C(=O)Nc6ccc(F)cc6)CC5)cc4F)c3s2)nc1`: the GI50 was 2.29 µM in the experiment on HL-60(TB) leukemia; 0.252 µM in the experiment with K-562 leukemia; 1.46 µM in the experiment on MOLT-4 leukemia; 1.66 µM in the experiment on NCI-H460 lung; 1.82 µM in the experiment on SK-MEL-2 melanoma; 1.89 µM with U251 CNS. Besides, the GI50 with UACC-62 melanoma is 1.89 µM. Also, the total growth inhibition concentration (TGI) in the experiment on HL-60(TB) leukemia is 5.12 µM; with K-562 leukemia it was 1.83 µM; in the experiment with MOLT-4 leukemia it was 4.26 µM; in the experiment on NCI-H460 lung it was 3.4 µM; with SK-MEL-2 melanoma, 3.6 µM; in the experiment with U251 CNS, 3.79 µM. In the experiment on UACC-62 melanoma, the TGI amounted to 4.66 µM.
Consider `Cc1cccc2c1Sc1ccccc1C2NC(=O)CN(C)C` (configuration not stated), for which the TGI in the experiment on HL-60(TB) leukemia, in the experiment with K-562 leukemia, in the experiment on MOLT-4 leukemia, in the experiment on NCI-H460 lung, in the experiment on SK-MEL-28 melanoma and with SN12C renal was over 100 µM in each case. The TGI in the experiment with U251 CNS, in the experiment with UACC-62 melanoma and with UO-31 renal was over 100 µM in each case.
On to `CO/C=C1\OC(=O)C=C1OC`, for which the total growth inhibition concentration (TGI) in the experiment on HL-60(TB) leukemia, in the experiment on K-562 leukemia, with MOLT-4 leukemia, in the experiment on NCI-H460 lung, with SK-MEL-2 melanoma and with SK-MEL-28 melanoma was over 100 µM throughout. Besides, the TGI is over 100 µM in the experiment with SN12C renal, over 31.6 µM in the experiment with U251 CNS, over 100 µM in the experiment with UACC-62 melanoma and over 100 µM in the experiment on UO-31 renal.
For the compound `c1csc(-c2ccc(CNc3c4ccccc4nc4ccccc34)cc2)c1`, the GI50 in the experiment with HL-60(TB) leukemia was 1.45 µM; in the experiment on MOLT-4 leukemia it was 1.32 µM; with SK-MEL-2 melanoma, 2.11 µM; in the experiment on SK-MEL-28 melanoma, 1.69 µM; in the experiment on SN12C renal it was 9.15 µM; in the experiment on UACC-62 melanoma it was 6.74 µM. In the experiment with UO-31 renal, the GI50 is 1.19 µM. Also, the TGI in the experiment with HL-60(TB) leukemia stood at 3.28 µM; in the experiment with MOLT-4 leukemia, 3.74 µM; with SK-MEL-2 melanoma it was 4.79 µM; in the experiment with SK-MEL-28 melanoma it was 3.28 µM; in the experiment with SN12C renal, 28.8 µM; with UACC-62 melanoma, 27 µM. For the same compound, the TGI with UO-31 renal stood at 2.57 µM.
Take `CN(c1ccccc1)c1nc(=[N+]2CCCC2)ss1`: the TGI in the experiment on HL-60(TB) leukemia, in the experiment with K-562 leukemia, in the experiment on MOLT-4 leukemia, with NCI-H460 lung, with SK-MEL-2 melanoma and in the experiment on SK-MEL-28 melanoma was over 100 µM throughout. For the same compound, the total growth inhibition concentration (TGI) in the experiment on SN12C renal, in the experiment on U251 CNS, in the experiment with UACC-62 melanoma and with UO-31 renal was over 100 µM throughout.
